Reference: patent US20060069132A1, “Azolecarboxamide herbicides” (priority 2004, published 2006)

How the values were obtained:
barnyardgrass [1] = test: Test A pre-/postemergence herbicide test; format: in vivo, Echinochloa crus-galli
Method in brief: (§1)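 Sandy loam soil given preemergence directed spray; plants at 2 to 10 cm, one- to two-leaf stage, sprayed to runoff postemergence, compounds in non-phytotoxic solvent with surfactant. Injury rated visually versus untreated controls after about ten greenhouse days, 0 (no effect) to 100 (complete control); dash means not tested.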

large crabgrass [2] = test: Test A pre-/postemergence herbicide test; format: in vivo, Digitaria sanguinalis
Method in brief: as §1

giant foxtail [3] = test: Test A pre-/postemergence herbicide test; format: in vivo, Setaria faberi
Method in brief: as §1

morningglory [4] = test: Test A pre-/postemergence herbicide test; format: in vivo, Ipomoea spp.
Method in brief: as §1

redroot pigweed = test: Test A pre-/postemergence herbicide test; format: in vivo, Amaranthus retroflexus
Method in brief: as §1

velvetleaf [5] = test: Test A pre-/postemergence herbicide test; format: in vivo, Abutilon theophrasti
Method in brief: as §1

barnyardgrass [6] = test: Test B pre-/postemergence herbicide test; format: in vivo, Echinochloa crus-galli
Method in brief: (§2)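 Evaluation is visual, comparing treated with control plants on a scale where 0 means no effect and 100 means full control. Treatments were preemergence, or postemergence on seedlings 2–18 cm tall, and held 13–15 days in the greenhouse.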

Surinam grass = test: Test B pre-/postemergence herbicide test; format: in vivo, Urochloa decumbens
Method in brief: (§3)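 Response was scored visually 13 to 15 days after treatment against untreated greenhouse controls, 0 meaning no effect and 100 complete control. Formulations (solvent mixture plus surfactant) went onto soil after planting, onto foliage of 1- to 4-leaf plants, and onto 2-leaf plants in a flooded paddy set including rice and barnyardgrass.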

cocklebur = test: Test B pre-/postemergence herbicide test; format: in vivo, Xanthium strumarium
Method in brief: as §2

corn = test: Test B pre-/postemergence herbicide test; format: in vivo, Zea mays
Method in brief: as §3

large crabgrass [7] = test: Test B pre-/postemergence herbicide test; format: in vivo, Digitaria sanguinalis
Method in brief: as §3

giant foxtail [8] = test: Test B pre-/postemergence herbicide test; format: in vivo, Setaria faberi
Method in brief: as §3

lambsquarters = test: Test B pre-/postemergence herbicide test; format: in vivo, Chenopodium album
Method in brief: as §3

morningglory [9] = test: Test B pre-/postemergence herbicide test; format: in vivo, Ipomoea coccinea
Method in brief: as §2

pigweed = test: Test B pre-/postemergence herbicide test; format: in vivo, Amaranthus retroflexus
Method in brief: as §3

rice [10] = test: Test B pre-/postemergence herbicide test; format: in vivo, Oryza sativa; details: preemergence
Method in brief: as §3

velvetleaf [11] = test: Test B pre-/postemergence herbicide test; format: in vivo, Abutilon theophrasti
Method in brief: as §3

blackgrass = test: Test B postemergence herbicide test; format: in vivo, Alopecurus myosuroides; details: scale 0 (no effect) to 100 (complete control)
Method in brief: (§4)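 Each value is a visual 0–100 response rating taken against controls 13 to 15 days after treatment in the greenhouse. Plants received formulated chemical postemergence at the 1- to 4-leaf stage or, in flooded paddy, at the 2-leaf stage.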

wheat = test: Test B postemergence herbicide test; format: in vivo, Triticum aestivum; design: key to Wheat plant response rating: 0 = no effect, 100 = complete control; details: scale 0 (no effect) to 100 (complete control)
Method in brief: (§5)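 Read-out: visual comparison with controls, scored 0 to 100, where 100 means complete control and 0 no effect. Formulated chemicals were applied postemergence to plants 2–18 cm tall (1- to 4-leaf), or to flooded-paddy plants at the 2-leaf stage, then held 13 to 15 days under glass.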

wild oat = test: Test B postemergence herbicide test; format: in vivo, Avena fatua; details: scale 0 (no effect) to 100 (complete control)
Method in brief: as §5

rice [12] = test: Test B flooded paddy test; format: in vivo, Oryza sativa; details: 1000 g ai/ha, visual rating, scale 0 to 100 (0 no effect, 100 complete control), 13 to 15 days
Method in brief: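 Postemergence plants were sprayed with formulated test chemicals at 2 to 18 cm height (1- to 4-leaf stage); paddy species were grown to the 2-leaf stage. After 13 to 15 days in a greenhouse, injury was rated visually against untreated controls on a 0–100 scale (0 = no effect, 100 = complete control).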

[13] = tested on: small flower umbrella sedge; test: Test B flooded paddy test; format: in vivo, Cyperus difformis; details: 1000 g ai/ha, visual rating, scale 0 to 100 (0 no effect, 100 complete control), 13 to 15 days
Method in brief: as §4

ducksalad = test: Test B flooded paddy test; format: in vivo, Heteranthera limosa; details: 1000 g ai/ha, visual rating, scale 0 to 100 (0 no effect, 100 complete control), 13 to 15 days
Method in brief: as §4

barnyardgrass [14] = test: Test B flooded paddy test; format: in vivo, Echinochloa crus-galli; details: 1000 g ai/ha, visual rating, scale 0 to 100 (0 no effect, 100 complete control), 13 to 15 days
Method in brief: as §4

[15] = Postemergence, 500 g ai/ha, 0 to 100 scale, 0 no effect, 100 complete control
[16] = Postemergence, 2000 g ai/ha, 0 to 100 scale, 0 no effect, 100 complete control
[17] = Preemergence, 500 g ai/ha, visual rating, 0 to 100 scale (0 no effect, 100 complete control)
[18] = Preemergence, 2000 g ai/ha, visual rating, 0 to 100 scale (0 no effect, 100 complete control)
[19] = 500 g ai/ha, visual rating 0-100, 0 no effect, 100 complete control, preemergence
[20] = Postemergence, 500 g ai/ha, visual rating after 13 to 15 days, scale 0 (no effect) to 100 (complete control)
[21] = postemergence, 125 g ai/ha, visual rating, scale 0 (no effect) to 100 (complete control)
[22] = preemergence, 125 g ai/ha, 0 to 100 scale, 0 is no effect, 100 is complete control
[23] = Postemergence, 500 g ai/ha, visual rating after 13 to 15 days
[24] = postemergence, 125 g ai/ha, visual rating

## CCn1nc(C(C)(C)C)cc1C(=O)Nc1cccc(C(=O)OC(C)(C)C)c1 [Compound 98]
Barnyardgrass [1]; [15]
  Barnyardgrass plant response rating: 0
Barnyardgrass [1]; [16]
  Plant response rating, Barnyardgrass: 0
Barnyardgrass [1]; [17]
  Barnyardgrass plant response rating: 0
Barnyardgrass [1]; [18]
  Barnyardgrass plant response rating: 0
Large crabgrass [2]; [15]
  Crabgrass, Large plant response rating: 0
Large crabgrass [2]; [16]
  Plant response rating, Crabgrass, Large: 0
Large crabgrass [2]; [17]
  Crabgrass, Large plant response rating: 0
Large crabgrass [2]; [18]
  Crabgrass, Large plant response rating: 0
Giant foxtail [3]; [15]
  Foxtail, Giant plant response rating: 0
Giant foxtail [3]; [16]
  Plant response rating, Foxtail, Giant: 0
Giant foxtail [3]; [17]
  Foxtail, Giant plant response rating: 0
Giant foxtail [3]; [18]
  Foxtail, Giant plant response rating: 0
Morningglory [4]; [15]
  Morningglory plant response rating: 0
Morningglory [4]; [16]
  Plant response rating, Morningglory: 0
Morningglory [4]; [17]
  Morningglory plant response rating: 0
Morningglory [4]; [18]
  Morningglory plant response rating: 0
Redroot pigweed; [15]
  Pigweed plant response rating: 5
Redroot pigweed; [16]
  Plant response rating, Pigweed: 10
Redroot pigweed; [17]
  Pigweed plant response rating: 0
Redroot pigweed; [18]
  Pigweed plant response rating: 0
Velvetleaf [5]; [15]
  Velvetleaf plant response rating: 0
Velvetleaf [5]; [16]
  Plant response rating, Velvetleaf: 5
Velvetleaf [5]; [17]
  Velvetleaf plant response rating: 0
Velvetleaf [5]; [18]
  Velvetleaf plant response rating: 0
Barnyardgrass [6]; [19]
  Plant response rating, Barnyardgrass: 0
Barnyardgrass [6]; [20]
  Plant response rating, Barnyardgrass: 10
Barnyardgrass [6]; [21]
  Barnyardgrass plant response rating: 10
Barnyardgrass [6]; [22]
  Plant response rating, Barnyardgrass: 0
Surinam grass; [19]
  Plant response rating, Surinam Grass: 0
Surinam grass; [20]
  Plant response rating, Surinam Grass: 20
Surinam grass; [21]
  Surinam Grass plant response rating: 10
Surinam grass; [22]
  Plant response rating, Surinam Grass: 0
cocklebur; [19]
  Plant response rating, Cocklebur: 0
cocklebur; [20]
  Plant response rating, Cocklebur: 20
cocklebur; [21]
  Cocklebur plant response rating: 0
cocklebur; [22]
  Plant response rating, Cocklebur: 0
corn; [19]
  Plant response rating, Corn: 0
corn; [20]
  Plant response rating, Corn: 10
corn; [21]
  Corn plant response rating: 10
corn; [22]
  Plant response rating, Corn: 0
Large crabgrass [7]; [19]
  Plant response rating, Crabgrass, Large: 0
Large crabgrass [7]; [20]
  Plant response rating, Crabgrass, Large: 20
Large crabgrass [7]; [21]
  Crabgrass, Large plant response rating: 20
Large crabgrass [7]; [22]
  Plant response rating, Crabgrass, Large: 0
Giant foxtail [8]; [19]
  Plant response rating, Foxtail, Giant: 0
Giant foxtail [8]; [20]
  Plant response rating, Foxtail, Giant: 10
Giant foxtail [8]; [21]
  Foxtail, Giant plant response rating: 10
Giant foxtail [8]; [22]
  Plant response rating, Foxtail, Giant: 0
lambsquarters; [19]
  Plant response rating, Lambsquarters: 0
lambsquarters; [20]
  Plant response rating, Lambsquarters: 30
lambsquarters; [21]
  Lambsquarters plant response rating: 20
lambsquarters; [22]
  Plant response rating, Lambsquarters: 0
Morningglory [9]; [19]
  Plant response rating, Morningglory: 0
Morningglory [9]; [20]
  Plant response rating, Morningglory: 20
Morningglory [9]; [21]
  Morningglory plant response rating: 0
Morningglory [9]; [22]
  Plant response rating, Morningglory: 0
pigweed; [19]
  Plant response rating, Pigweed: 0
pigweed; [20]
  Plant response rating, Pigweed: 30
pigweed; [21]
  Pigweed plant response rating: 10
pigweed; [22]
  Plant response rating, Pigweed: 0
Rice [10]; 500 g ai/ha, visual rating 0-100, 0 no effect, 100 complete control
  Plant response rating, Rice: 0
Rice [10]; 125 g ai/ha, 0 to 100 scale, 0 is no effect, 100 is complete control
  Plant response rating, Rice: 0
Velvetleaf [11]; [19]
  Plant response rating, Velvetleaf: 0
Velvetleaf [11]; [20]
  Plant response rating, Velvetleaf: 10
Velvetleaf [11]; [21]
  Velvetleaf plant response rating: 10
Velvetleaf [11]; [22]
  Plant response rating, Velvetleaf: 0
blackgrass; [23]
  Plant response rating, Blackgrass: 0
blackgrass; [24]
  Blackgrass plant response rating: 0
wheat; [23]
  Plant response rating, Wheat: 0
wheat; [24]
  Wheat plant response rating: 0
Wild oat; [23]
  Plant response rating, Oat, Wild: 10
Wild oat; [24]
  Oat, Wild plant response rating: 0
Rice [12]
  Rice plant response rating: 0
[13]
  Sedge, Umbrella plant response rating: 0
ducksalad
  Ducksalad plant response rating: 0
Barnyardgrass [14]
  Barnyardgrass plant response rating: 0
